US8518952B2, “6 substituted 2-heterocyclylamino pyrazine compounds as CHK-1 inhibitors” (Pfizer Inc., priority 2008, dated 2013)

Key:
CHK1 (kinase domain) = target: T1, CHK1 (kinase domain) (Homo sapiens, UniProt O14757); experiment: CHK1 Ki determination, spectrophotometric coupled (pyruvate kinase/lactate dehydrogenase) assay; type: biochemical; conditions: CHK-1 kinase domain; for Ki: 150 uM ATP, 125 uM Syntide 2
T1 construct: a solution containing 1 nM of CHK1 (kinase domain)
T1 sequence (O14757 9-265 limits assumed): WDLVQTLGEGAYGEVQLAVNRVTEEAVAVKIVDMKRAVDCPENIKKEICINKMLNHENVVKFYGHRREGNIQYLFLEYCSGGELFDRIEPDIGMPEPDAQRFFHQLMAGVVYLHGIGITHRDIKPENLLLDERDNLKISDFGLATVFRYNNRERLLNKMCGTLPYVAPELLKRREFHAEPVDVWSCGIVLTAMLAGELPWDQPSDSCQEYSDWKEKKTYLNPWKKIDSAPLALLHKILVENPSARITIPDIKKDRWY
Summary of the method: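 Ki values, or % inhibition where no Ki was obtained, come from a tight-binding fit that uses active enzyme concentration and the ATP Km. Rates were followed as NADH loss at 340 nm, with ADP production coupled via pyruvate kinase and lactate dehydrogenase. Reactions with ATP (150 uM) and Syntide 2 (125 uM) were started after the CHK1 kinase domain had stood with inhibitor for 15 min.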

Mia Paca-2 cells = experiment: Histone H3 (Ser10) phosphorylation ELISA, abrogation of camptothecin-induced G2 arrest (CHK-1 cellular assay); type: cell-based; conditions: Homo sapiens, camptothecin 8 hrs, then compound with nocodozole 16 hours
Description: The Histone H3 phosphorylation ELISA assay detects cells entering mitosis and represents the primary in vitro cell-based assay used to measure the cellular potency of compounds in abrogating the G2 check point induced by DNA damage in HeLa cells or MiaPaCa cells. The candidate substances were assayed for potency in their ability to inhibit camptothecin-induced G2 arrest, as measured by an increase in Histone H3 phosphorylation on Ser10, a marker of entry into mitosis.
The PathScan Phospho-Histone H3 (Ser10) Sandwich ELISA kit was used (Cell Signaling, #7155) and the assay was performed according to manufacturer recommendations. Tissue culture plates were seeded with HeLa cells or MiaPaCa Cells and allowed to attach overnight. The cells were then treated with camptothecin to induce DNA damage for 8 hrs. Candidate substances or diluent were then added in the presence of nocodozole for 16 hours. Cells were then lysed with buffer from Assay Designs (#80-1114) supplemented with protease inhibitors and frozen overnight. The fresh whole cell lysates were then thawed and added to the ELISA plate with shaking for 3 hours. Between all subsequent steps plates were washed 4 times with PBST. Biotinylated phospho Histone H3 (ser10) detection antibody was added for 1 hour, followed by addition of horseradish peroxidase-linked streptavidin secondary antibody for 1 hour. Color development of the antibody was performed with addition of TMB substrate and incubation for 2 minutes on a plate shaker. Stop solution was added and plates were read with absorbance at 450 nm on a spectrophotometer. EC50 values were calculated by sigmoid curve fitting using a four-parameter analysis.
Under the “Ki” column, data entries in the format of “%” are percent inhibition data where no Ki data is available. Data entry under the “EC50” column with an * are data obtained using Mia Paca-2 cells rather than HeLa cells. Data is not available where noted as n/a.

[1] = Mia Paca-2 cells (entries marked *)
[2] = MIA PaCa-2, Mia Paca-2 cells (entries marked *)

SMILES | Ki (CHK1 (kinase domain)) [nM] | EC50 (Mia Paca-2 cells; [1]) [nM] | EC50 (Mia Paca-2 cells; [2]) [nM] | percent inhibition (where no Ki data is available) (CHK1 (kinase domain); inhibitor concentration not given) [%^]
CC(CO)(CO)COc1ccc2c(c1)ncn2-c1cncc(N[C@@H]2CCCNC2)n1 [Example 256, 2-methyl-2-{[(1-{6-[(3R)-piperidin-3-ylamino]pyrazin-2-yl}-1H-benzimidazol-5-yl)oxy]methyl}propane-1,3-diol] | 1.26 | 53.7 |  | 
CO[C@@H]1CNC[C@@H](Nc2cncc(-c3cnc4ccccn34)n2)C1 [Example 250, 6-(imidazo[1,2-a]pyridin-3-yl)-N-[(3S,5S)-5-methoxypiperidin-3-yl]pyrazin-2-amine] | 48.8 |  | 1620 | 
C[C@@H]1CNC[C@@H]1Nc1cncc(-c2cnn3cccc(F)c23)n1 [Example 200, 6-(4-fluoropyrazolo[1,5-a]pyridin-3-yl)-N-[(3R,4R)-4-methylpyrrolidin-3-yl]pyrazin-2-amine] |  | 127 |  | 26.1
CCCOC[C@@H]1C[C@@H](Nc2cncc(-c3cnc4ccccn34)n2)CN1 [Example 192, 6-(imidazo[1,2-a]pyridin-3-yl)-N-[(3R,5S)-5-(propoxymethyl)pyrrolidin-3-yl]pyrazin-2-amine] | 29.2 | 187 |  | 
N#Cc1ccc2c(-c3cncc(N[C@@H]4CCCNC4)n3)cnn2c1 [Example 21, 3-{6-[(3R)-piperidin-3-ylamino]pyrazin-2-yl}pyrazolo[1,5-a]pyridine-6-carbonitrile] | 6.02 | 68.8 |  | 
CCOc1cc2ncn(-c3cncc(N[C@@H]4CCCNC4)n3)c2cn1 [Example 258, 6-(6-ethoxy-3H-imidazo[4,5-c]pyridin-3-yl)-N-[(3R)-piperidin-3-yl]pyrazin-2-amine] | 4.38 | 98.4 |  | 
N#Cc1ncc(N[C@@H]2CCCNC2)nc1-c1cnc2ccccn12 [Example 20, 3-(imidazo[1,2-a]pyridin-3-yl)-5-[(3R)-piperidin-3-ylamino]pyrazine-2-carbonitrile] | 930 |  | 10000 | 
C[C@@H]1CNC[C@@H]1Nc1cncc(-c2cnc3ccc(Cl)cn23)n1 [Example 229, 6-(6-chloroimidazo[1,2-a]pyridin-3-yl)-N-[(3R,4R)-4-methylpyrrolidin-3-yl]pyrazin-2-amine] | 4.4 | 9.75 |  | 
OC[C@@H]1C[C@@H](Nc2cncc(-c3cnc4cc(Cl)ccn34)n2)CN1 [Example 245, [(2S,4R)-4-{[6-(7-chloroimidazo[1,2-a]pyridin-3-yl)pyrazin-2-yl]amino}pyrrolidin-2-yl]methanol] | 4.72 | 85.9 |  | 
Cc1ncc(-c2cnc3ccccn23)nc1N[C@@H]1CCCNC1 [Example 16, 6-(imidazo[1,2-a]pyridin-3-yl)-3-methyl-N-[(3R)-piperidin-3-yl]pyrazin-2-amine] | 19.4 |  | 81.1 | 
C[C@@H]1CNC[C@@H]1Nc1cncc(-n2cnc3cc(OCC4(C)COC4)ccc32)n1 [Example 234, 6-{5-[(3-methyloxetan-3-yl)methoxy]-1H-benzimidazol-1-yl}-N-[(3R,4R)-4-methylpyrrolidin-3-yl]pyrazin-2-amine] | 2.5 | 89.9 |  | 
COC[C@@H]1C[C@@H](Nc2cncc(-c3cnc4cc(F)ccn34)n2)CN1 [Example 236, 6-(7-fluoroimidazo[1,2-a]pyridin-3-yl)-N-[(3R,5S)-5-(methoxymethyl)pyrrolidin-3-yl]pyrazin-2-amine] | 87.6 | 479 |  | 
C[C@@H]1CCNC[C@@H]1Nc1cncc(-c2cnc3cc(Cl)ccn23)n1 [Example 205, 6-(7-chloroimidazo[1,2-a]pyridin-3-yl)-N-[(3R,4R)-4-methylpiperidin-3-yl]pyrazin-2-amine] | 38.3 |  | 55.2 | 
COc1ccc2ncn(-c3cncc(N[C@@H]4CCCNC4)n3)c2c1 [Example 142, 6-(6-methoxy-1H-benzimidazol-1-yl)-N-[(3R)-piperidin-3-yl]pyrazin-2-amine] | 1.49 | 125 |  | 
CC(C)c1cn2c(-c3cncc(N[C@@H]4CC[C@@H](C)NC4)n3)cnc2s1 [Example 110, 6-(2-isopropylimidazo[2,1-b][1,3]thiazol-5-yl)-N-[(3R,6R)-6-methylpiperidin-3-yl]pyrazin-2-amine] | 17.3 | 589 |  | 
COc1ccn2c(-c3cncc(N[C@@H]4CCCNC4)n3)cnc2c1 [Example 37, 6-(7-Methoxyimidazo[1,2-a]pyridin-3-yl)-N-[(3R)-piperidin-3-yl]pyrazin-2-amine] | 2.03 |  | 21 | 
FC1(F)CCNCC1Nc1cncc(-c2cnc3ccc(Cl)cn23)n1 (stereo not shown) [Example 230, 6-(6-chloroimidazo[1,2-a]pyridin-3-yl)-N-(4,4-difluoropiperidin-3-yl)pyrazin-2-amine] | 9.2 |  | 76.8 | 
c1ccn2c(-c3cncc(N[C@@H]4C[C@@H]5CN[C@H]4C5)n3)cnc2c1 [Example 123, (1S,4R,6R)-N-(6-imidazo[1,2-a]pyridin-3-ylpyrazin-2-yl)-2-azabicyclo[2.2.1]heptan-6-amine] | 3.22 | 22.9 |  | 
C[C@H]1NCCC[C@H]1Nc1cncc(-c2cnc3ccc(C(F)(F)F)cn23)n1 [Example 228, N-[(2R,3R)-2-methylpiperidin-3-yl]-6-[6-(trifluoromethyl)imidazo[1,2-a]pyridin-3-yl]pyrazin-2-amine] | 6.5 |  | 24.5 | 
Clc1cc2c(cn1)ncn2-c1cncc(N[C@@H]2CCNC2)n1 [Example 271, 6-(6-chloro-1H-imidazo[4,5-c]pyridin-1-yl)-N-[(3R)-pyrrolidin-3-yl]pyrazin-2-amine] | 118 | 4770 |  | 
CC1(COc2ccn3c(-c4cncc(N[C@@H]5CCNC5)n4)cnc3c2)COC1 [Example 154, 6-{7-[(3-methyloxetan-3-yl)methoxy]imidazo[1,2-a]pyridin-3-yl}-N-[(3R)-pyrrolidin-3-yl]pyrazin-2-amine] | 3.9 | 602 |  | 
C[C@@H]1CCNC[C@@H]1Nc1cncc(-c2cnc3ccccn23)n1 [Example 204, 6-(imidazo[1,2-a]pyridin-3-yl)-N-[(3R,4R)-4-methylpiperidin-3-yl]pyrazin-2-amine] | 54.5 |  | 74.9 | 
CC1(COc2ccn3c(-c4cncc(N[C@@H]5CCCNC5)n4)cnc3c2)COC1 [Example 155, 6-{7-[(3-methyloxetan-3-yl)methoxy]imidazo[1,2-a]pyridin-3-yl}-N-[(3R)-piperidin-3-yl]pyrazin-2-amine] | 1 | 46.1 |  | 
C[C@@H]1NCCC[C@H]1Nc1cncc(-c2cnc3ccc(Cl)cn23)n1 [Example 225, 6-(6-chloroimidazo[1,2-a]pyridin-3-yl)-N-[(2S,3R)-2-methylpiperidin-3-yl]pyrazin-2-amine] | 17.9 |  | 64.9 | 
O[C@H]1CNC[C@H](Nc2cncc(-c3cnc4ccccn34)n2)C1 [Example 203, (3R,5R)-5-{[6-(imidazo[1,2-a]pyridin-3-yl)pyrazin-2-yl]amino}piperidin-3-ol] | 4.09 |  | 134 | 
C[C@@H]1C[C@@H](Nc2cncc(-c3cnc4cc(C#N)ccn34)n2)CN1 [Example 189, 3-(6-{[(3R,5R)-5-methylpyrrolidin-3-yl]amino}pyrazin-2-yl)imidazo[1,2-a]pyridine-7-carbonitrile] | 17.9 | 626 |  | 
FC(F)(F)c1ccc2ncc(-c3cncc(N[C@@H]4CCNC4)n3)n2c1 [Example 13, N-[(3R)-pyrrolidin-3-yl]-6-[6-(trifluoromethyl)imidazo[1,2-a]pyridin-3-yl]pyrazin-2-amine] | 12.8 | 513 |  | 
COc1ccn2c(-c3cncc(N[C@H]4CN[C@H](COC(C)C)C4)n3)cnc2c1 [Example 242, 6-(7-methoxyimidazo[1,2-a]pyridin-3-yl)-N-{(3R,5S)-5-[(propan-2-yloxy)methyl]pyrrolidin-3-yl}pyrazin-2-amine] | 28 | 129 |  | 
C[C@H]1NCCC[C@H]1Nc1cncc(-c2cnc3cnccn23)n1 [Example 163, 6-(imidazo[1,2-a]pyrazin-3-yl)-N-[(2R,3R)-2-methylpiperidin-3-yl]pyrazin-2-amine] | 14 | 248 |  | 
